Results on 23 compounds are retold here after patent publication US11434242B2, “Dopamine-b-hydroxylase inhibitors” (BIAL-PORTELA & Cª, S.A., priority 2017, dated 2022).

The target of the first test is T1, DβH (Homo sapiens, UniProt P09172).
T1 construct: cellular homogenate (75 μg total protein); host or cells: SK-N-SH cells (homogenate)
T1 sequence (P09172 1-617): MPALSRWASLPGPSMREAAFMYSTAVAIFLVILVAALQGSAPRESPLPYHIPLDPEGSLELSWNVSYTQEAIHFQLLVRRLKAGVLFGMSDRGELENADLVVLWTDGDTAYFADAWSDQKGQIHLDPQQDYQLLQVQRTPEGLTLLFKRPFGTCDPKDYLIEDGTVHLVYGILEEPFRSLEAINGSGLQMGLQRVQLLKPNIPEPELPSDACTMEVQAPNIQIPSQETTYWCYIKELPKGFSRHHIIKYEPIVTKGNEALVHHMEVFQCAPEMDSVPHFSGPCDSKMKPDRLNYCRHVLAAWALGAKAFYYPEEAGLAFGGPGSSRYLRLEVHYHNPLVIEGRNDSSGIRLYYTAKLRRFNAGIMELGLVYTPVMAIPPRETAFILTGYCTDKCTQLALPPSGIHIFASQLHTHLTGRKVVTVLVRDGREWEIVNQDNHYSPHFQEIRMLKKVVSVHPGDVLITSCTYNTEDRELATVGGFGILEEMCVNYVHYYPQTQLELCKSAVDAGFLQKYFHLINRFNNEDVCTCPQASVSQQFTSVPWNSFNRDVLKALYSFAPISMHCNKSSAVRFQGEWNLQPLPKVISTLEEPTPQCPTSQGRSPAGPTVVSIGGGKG
Briefly: DβH inhibition assay in SK-N-SH cellular homogenates (tyramine to octopamine). It counts as biochemical. Particulars: SK-N-SH cell homogenate, inhibitor 0.1 μM.
Take `O=C(O)Cc1[nH]c(=S)n2c1[C@@H]1C[C@]1(c1cc(F)ccc1F)C2` [Example 6, 2-((5aS,6aR)-5a-(2,5-difluorophenyl)-3-thioxo-2,3,5,5a,6,6a-hexahydrocyclopropa[3,4]pyrrolo[1,2-c]imidazol-1-yl)acetic Acid]: the “SKNSH (0.1 μM), activity in % of control” value is recorded as 36.9 % of control.

In the case of `OCCc1[nH]c(=S)n2c1[C@@H]1C[C@]1(c1cc(F)ccc1F)C2` [Example 42, (5aS,6aR)-5a-(2,5-difluorophenyl)-1-(2-hydroxyethyl)-5,5a,6,6a-tetrahydrocyclopropa[3,4]pyrrolo[1,2-c]imidazole-3(2H)-thione], the “SKNSH (0.1 μM), activity in % of control” value is listed as 51.5 % of control.

As to `O=C(O)Cc1[nH]c(=S)n2c1[C@@H]1C[C@]1(c1cc(F)cc(F)c1)C2` [Example 7, 2-((5aS,6aR)-5a-(3,5-difluorophenyl)-3-thioxo-2,3,5,5a,6,6a-hexahydrocyclopropa[3,4]pyrrolo[1,2-c]imidazol-1-yl)acetic Acid], the “SKNSH (0.1 μM), activity in % of control” value is reported as 45.6 % of control.

The test is the same for the next values; noted with them: SK-N-SH cell homogenate, inhibitor 1 μM.
`COC(=O)Cc1[nH]c(=S)n2c1[C@@H]1C[C@]1(c1cc(F)ccc1F)C2` [Example 4, Methyl 2-((5aS,6aR)-5a-(2,5-difluorophenyl)-3-thioxo-2,3,5,5a,6,6a-hexahydrocyclopropa[3,4]pyrrolo[1,2-c]imidazol-1-yl)acetate]: the “SKNSH (1 μM), activity in % of control” value was 20.3 % of control.

Regarding `COC(=O)Cc1[nH]c(=S)n2c1[C@@H]1C[C@]1(c1cc(F)cc(F)c1)C2` [Example 5, Methyl 2-((5aS,6aR)-5a-(3,5-difluorophenyl)-3-thioxo-2,3,5,5a,6,6a-hexahydrocyclopropa[3,4]pyrrolo[1,2-c]imidazol-1-yl)acetate], the “SKNSH (1 μM), activity in % of control” value is reported as 19.9 % of control.

`O=Cc1[nH]c(=S)n2c1C[C@@H](c1cc(F)cc(F)c1)C2` [Example 45, (S)-6-(3,5-difluorophenyl)-3-thioxo-3,5,6,7-tetrahydro-2H-pyrrolo[1,2-c]imidazole-1-carbaldehyde]: the “SKNSH (1 μM), activity in % of control” value is recorded as 46.8 % of control.

For the compound `O=C(O)Cc1[nH]c(=S)n2c1[C@@H]1C[C@]1(c1cc(F)ccc1F)C2` [Example 6, 2-((5aS,6aR)-5a-(2,5-difluorophenyl)-3-thioxo-2,3,5,5a,6,6a-hexahydrocyclopropa[3,4]pyrrolo[1,2-c]imidazol-1-yl)acetic Acid], the “SKNSH (1 μM), activity in % of control” value was 3.7 % of control.

Regarding `OCCc1[nH]c(=S)n2c1[C@@H]1C[C@]1(c1cc(F)ccc1F)C2` [Example 42, (5aS,6aR)-5a-(2,5-difluorophenyl)-1-(2-hydroxyethyl)-5,5a,6,6a-tetrahydrocyclopropa[3,4]pyrrolo[1,2-c]imidazole-3(2H)-thione], the “SKNSH (1 μM), activity in % of control” value is 8.0 % of control.

On to `CCCCN(C)C(=O)Cc1[nH]c(=S)n2c1[C@@H]1C[C@]1(c1cc(F)ccc1F)C2` [Example 38, N-butyl-2-((5aS,6aR)-5a-(2,5-difluorophenyl)-3-thioxo-2,3,5,5a,6,6a-hexahydrocyclopropa[3,4]pyrrolo[1,2-c]imidazol-1-yl)-N-methylacetamide], for which the “SKNSH (1 μM), activity in % of control” value is reported as 20.9 % of control.

On to `CN(CCc1[nH]c(=S)n2c1[C@@H]1C[C@]1(c1cc(F)ccc1F)C2)Cc1ccccc1` [Example 40, (5aS,6aR)-1-(2-(benzyl(methyl)amino)ethyl)-5a-(2,5-difluorophenyl)-5,5a,6,6a-tetrahydrocyclopropa[3,4]pyrrolo[1,2-c]imidazole-3(2H)-thione], for which the “SKNSH (1 μM), activity in % of control” value was 29.3 % of control.

Regarding `CS(=O)(=O)Cc1[nH]c(=S)n2c1C[C@@H](c1c(F)c(F)cc(F)c1F)C2` [Example 47, (S)-1-(methylsulfonylmethyl)-6-(2,3,5,6-tetrafluorophenyl)-6,7-dihydro-2H-pyrrolo[1,2-c]imidazole-3(5H)-thione], the “SKNSH (1 μM), activity in % of control” value is given as 62.9 % of control.

As for `O=C(O)Cc1[nH]c(=S)n2c1C[C@@H](c1cc(F)ccc1F)C2` [Example 3, (S)-2-(6-(2,5-difluorophenyl)-3-thioxo-3,5,6,7-tetrahydro-2H-pyrrolo[1,2-c]imidazol-1-yl)acetic Acid], the “SKNSH (1 μM), activity in % of control” value is 35.8 % of control.

Regarding `CCOC(=O)Cc1[nH]c(=S)n2c1C1CC1(c1cccs1)C2` (centres unmarked) [Example 44, Ethyl 2-(5a-(thiophen-2-yl)-3-thioxo-2,3,5,5a,6,6a-hexahydrocyclopropa[3,4]pyrrolo[1,2-c]imidazol-1-yl)acetate], the “SKNSH (1 μM), activity in % of control” value is reported as 45.9 % of control.

For `O=C(Cc1[nH]c(=S)n2c1C[C@@H](c1cc(F)cc(F)c1)C2)N1CCOCC1` [Example 9, (S)-2-(6-(3,5-difluorophenyl)-3-thioxo-3,5,6,7-tetrahydro-2H-pyrrolo[1,2-c]imidazol-1-yl)-1-morpholinoethanone], the “SKNSH (1 μM), activity in % of control” value is 54.9 % of control.

For the compound `NC(=O)Cc1[nH]c(=S)n2c1[C@@H]1C[C@]1(c1cc(F)cc(F)c1)C2` [Example 33, 2-((5aS,6aR)-5a-(3,5-difluorophenyl)-3-thioxo-2,3,5,5a,6,6a-hexahydrocyclopropa[3,4]pyrrolo[1,2-c]imidazol-1-yl)acetamide], the “SKNSH (1 μM), activity in % of control” value is given as 33.4 % of control.

As to `CCOC(=O)Cc1[nH]c(=S)n2c1C[C@@H](c1cc(F)ccc1F)C2` [Example 2, (S)-ethyl 2-(6-(2,5-difluorophenyl)-3-thioxo-3,5,6,7-tetrahydro-2H-pyrrolo[1,2-c]imidazol-1-yl)acetate], the “SKNSH (1 μM), activity in % of control” value is 49.3 % of control.

On to `Fc1ccc(F)c([C@]23C[C@H]2c2c(CCc4ccccc4)[nH]c(=S)n2C3)c1` [Example 48, (5aS,6aR)-5a-(2,5-difluorophenyl)-1-phenethyl-5,5a,6,6a-tetrahydrocyclopropa[3,4]pyrrolo[1,2-c]imidazole-3(2H)-thione], for which the “SKNSH (1 μM), activity in % of control” value was 48.4 % of control.

For `Fc1ccc(F)c([C@]23C[C@H]2c2c(Cc4nnn[nH]4)[nH]c(=S)n2C3)c1` [Example 41, (5aS,6aR)-1-((1H-tetrazol-5-yl)methyl)-5a-(2,5-difluorophenyl)-5,5a,6,6a-tetrahydrocyclopropa[3,4]pyrrolo[1,2-c]imidazole-3(2H)-thione], the “SKNSH (1 μM), activity in % of control” value was 60.7 % of control.

On to `N#CCc1[nH]c(=S)n2c1[C@@H]1C[C@]1(c1cc(F)ccc1F)C2` [Example 36, 2-((5aS,6aR)-5a-(2,5-difluorophenyl)-3-thioxo-2,3,5,5a,6,6a-hexahydrocyclopropa[3,4]pyrrolo[1,2-c]imidazol-1-yl)acetonitrile], for which the “SKNSH (1 μM), activity in % of control” value is reported as 50.1 % of control.

For `O=C(O)Cc1[nH]c(=S)n2c1[C@@H]1C[C@]1(c1cc(F)cc(F)c1)C2` [Example 7, 2-((5aS,6aR)-5a-(3,5-difluorophenyl)-3-thioxo-2,3,5,5a,6,6a-hexahydrocyclopropa[3,4]pyrrolo[1,2-c]imidazol-1-yl)acetic Acid], the “SKNSH (1 μM), activity in % of control” value was 3.6 % of control.

For the compound `CCCCN(C)CCc1[nH]c(=S)n2c1[C@@H]1C[C@]1(c1cc(F)ccc1F)C2.Cl` [Example 39, (5aS,6aR)-1-(2-(butyl(methyl)amino)ethyl)-5a-(2,5-difluorophenyl)-5,5a,6,6a-tetrahydrocyclopropa[3,4]pyrrolo[1,2-c]imidazole-3(2H)-thione Hydrochloride], the “SKNSH (1 μM), activity in % of control” value is reported as 29.8 % of control.

As to `O=C(O)Cc1[nH]c(=S)n2c1C[C@@H](c1cc(F)cc(F)c1)C2` [Example 11, (S)-2-(6-(3,5-difluorophenyl)-3-thioxo-3,5,6,7-tetrahydro-2H-pyrrolo[1,2-c]imidazol-1-yl)acetic Acid], the “SKNSH (1 μM), activity in % of control” value is 28.5 % of control.

Regarding `N#CNC(=O)Cc1[nH]c(=S)n2c1C[C@@H](c1c(F)c(F)cc(F)c1F)C2` [Example 19, (S)—N-cyano-2-(6-(2,3,5,6-tetrafluorophenyl)-3-thioxo-3,5,6,7-tetrahydro-2H-pyrrolo[1,2-c]imidazol-1-yl)acetamide], the “SKNSH (1 μM), activity in % of control” value was 16.4 % of control.

For `OCCc1[nH]c(=S)n2c1[C@@H]1C[C@]1(c1cc(F)cc(F)c1)C2` [Example 8, (5aS,6aR)-5a-(3,5-difluorophenyl)-1-(2-hydroxyethyl)-5,5a,6,6a-tetrahydrocyclopropa[3,4]pyrrolo[1,2-c]imidazole-3(2H)-thione], the “SKNSH (1 μM), activity in % of control” value was 15.3 % of control.

Take `Fc1ccc(F)c([C@]23C[C@H]2c2c(CCCc4ccccc4)[nH]c(=S)n2C3)c1` [Example 49, (5aS,6aR)-5a-(2,5-difluorophenyl)-1-(3-phenylpropyl)-5,5a,6,6a-tetrahydrocyclopropa[3,4]pyrrolo[1,2-c]imidazole-3(2H)-thione]: the “SKNSH (1 μM), activity in % of control” value is recorded as 33.7 % of control.

Take `CN(Cc1ccccc1)C(=O)Cc1[nH]c(=S)n2c1[C@@H]1C[C@]1(c1cc(F)ccc1F)C2` [Example 37, N-benzyl-2-((5aS,6aR)-5a-(2,5-difluorophenyl)-3-thioxo-2,3,5,5a,6,6a-hexahydrocyclopropa[3,4]pyrrolo[1,2-c]imidazol-1-yl)-N-methylacetamide]: the “SKNSH (1 μM), activity in % of control” value was 15.7 % of control.
